Results: patent US20230250096A1, “SUBSTITUTED PHENYL-1H-PYRROLO[2,3-c] PYRIDINE DERIVATIVES” (Janssen Pharmaceutica NV, priority 2021, published 2023)

How the values were obtained:
[1] = target: T1, menin/MLL (terbium chelate-labeled menin, FITC-MBM1 peptide) (Homo sapiens, UniProt O00255, T541A); assay: Menin/MLL homogenous time-resolved fluorescence (HTRF) assay; format: binding; settings: 30 min incubation
T1 construct: Menin (a.a 1-610-6xhis tag, 2.3 mg/mL in 20 mM Hepes)
T1 sequence (O00255 with tags, fused parts or gaps T541A): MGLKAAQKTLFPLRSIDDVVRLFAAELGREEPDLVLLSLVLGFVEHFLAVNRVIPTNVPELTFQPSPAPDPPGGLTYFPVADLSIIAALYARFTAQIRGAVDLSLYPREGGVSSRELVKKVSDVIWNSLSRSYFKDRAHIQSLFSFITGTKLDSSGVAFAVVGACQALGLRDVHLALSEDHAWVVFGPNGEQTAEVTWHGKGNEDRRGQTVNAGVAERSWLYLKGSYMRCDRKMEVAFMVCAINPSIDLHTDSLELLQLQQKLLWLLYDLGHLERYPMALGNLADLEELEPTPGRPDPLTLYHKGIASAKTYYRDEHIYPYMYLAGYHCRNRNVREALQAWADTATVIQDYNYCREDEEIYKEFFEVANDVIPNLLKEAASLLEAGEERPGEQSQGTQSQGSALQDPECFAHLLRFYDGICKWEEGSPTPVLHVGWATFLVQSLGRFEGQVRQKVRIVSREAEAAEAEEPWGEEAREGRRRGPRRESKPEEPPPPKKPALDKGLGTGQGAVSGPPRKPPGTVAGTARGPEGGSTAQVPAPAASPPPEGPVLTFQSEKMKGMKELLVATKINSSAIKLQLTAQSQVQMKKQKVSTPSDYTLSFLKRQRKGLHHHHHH
In short: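 Terbium-labeled menin (a.a. 1-610, His-tagged; […]) pre-incubated 30 min with compound, then 75 nM FITC-MBM1 peptide added for 15 min at ambient temperature in Tris pH 7.5 buffer, 0.5% DMSO. HTRF 520/490 nm ratio read; IC50 from 11-point four-fold titrations, typically from 10 μM.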

MEIS1 mRNA expression = MEIS1 mRNA expression assay (Quantigene Singleplex) in MOLM14 cells; format: cell-based, human; settings: 48 hours incubation
In short: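 MOLM14 cells, 3,750/well, exposed to increasing compound concentrations for 48 h. MEIS1 mRNA measured by QuantiGene Singleplex branched-DNA hybridization (lysis 45 min, hybridization 18–22 h, both 55 °C), normalized to RPL28. IC50 fitted to background-corrected fold change versus DMSO.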

Row | SMILES | IC50 [1] | IC50 (MEIS1 mRNA expression; Homo sapiens, MOLM-14, 48 h) | IC50 (MEIS1 mRNA expression)
1 | Cc1cncc2c1c(C[C@@H]1CCN(CC3CCC(O)CC3)C1)cn2-c1ccc(F)cc1C(=O)N(C)C(C)C (stereo partly drawn) [Compound 205] | 0.106 nM | 19 nM | –
2 | CC(=O)N1CCC(CN2CC[C@@H](Cc3cn(-c4ccc(F)cc4C(=O)N4CCC5CC54)c4cncc(C)c34)C2)CC1 (single isomer, unassigned) [Compound 311a] | 0.037 nM | 14 nM | –
3 | Cc1cncc2c1c(C[C@@H]1CCN(CC3CCC(O)CC3)C1)cn2-c1ccc(F)cc1C(=O)N(C)C(C)C (single isomer, unassigned) [Compound 205b] | 0.035 nM | – | 31 nM
